According to patent US20220041538A1, “CA[…] ACID AND SALTS THEREOF” (EMERALD HEALTH PHARMACEUTICALS INC, priority 2018, published 2022):
Entries after “also recorded” stand apart in the source; their conditions may differ. Read-outs that look alike come from different tables or passages of the source.

Key:
PPARγ = molecular target: T1, PPARγ (Homo sapiens, UniProt P37231); assay: PolarScreen PPAR Competitor Assay (PPARγ binding, fluorescence polarization)
T1 sequence (P37231 238-505 limits assumed): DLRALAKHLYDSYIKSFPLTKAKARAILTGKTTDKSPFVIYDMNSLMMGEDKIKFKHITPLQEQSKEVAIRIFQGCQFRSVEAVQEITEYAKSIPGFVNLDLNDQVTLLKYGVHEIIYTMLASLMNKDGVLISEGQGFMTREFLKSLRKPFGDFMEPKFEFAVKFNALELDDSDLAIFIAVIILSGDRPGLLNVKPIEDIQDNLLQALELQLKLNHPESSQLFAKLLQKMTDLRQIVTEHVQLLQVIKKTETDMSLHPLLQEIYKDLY
Protocol: PPARγ binding activity was determined by using PolarScreen™ PPAR Competitor Assay kit (Life Technologies), according to the manufacturer's specifications. The PolarScreen™ PPAR Competitor Assay is a binding assay for determining IC50 values of compounds that bind to PPARγ.
Concentration of the compound of formula I and salts of formula II resulting in a half maximal shifts in polarization value determines the IC50.

3NP-intoxicated mice = assay: 3NP murine model of Huntington's disease, behavioral score; type: in vivo; details: oral and intraperitoneal; I 10 mg/Kg both routes; sodium salt 30 mg/Kg oral, 10 mg/Kg i.p.
Protocol: Mice were subjected to behavioral tests for determining their neurological status after the treatment with oral cannabigerol quinone acid (I) (10 mg/Kg dissolved in sesame oil) and after intraperitoneal delivery (10 mg/Kg dissolved in ethanol/cremophor/saline). Hind limb clasping, Locomotor activity, and kyphosis were rated from 0 to 2 based on severity: a score of 0 typically indicates normal function and 2 seriously affected.
Mice were subjected to behavioral tests for determining their neurological status after the treatment with oral sodium salt of the cannabigerol quinone acid (30 mg/Kg dissolved saline) and after intraperitoneal delivery (10 mg/Kg dissolved in saline). Hind limb clasping, Locomotor activity, and kyphosis were rated from 0 to 2 based on severity: a score of 0 typically indicates normal function and 2 seriously affected. […]
Lesions of the striatum were induced with 3-NP in adult (16-week-old; 30 g) male C57BL/6 mice (Harlan Ibérica, Barcelona, Spain). […] We evaluated the general locomotor activity, the hindlimb clasping and dystonia, and the truncal dystonia. […]

[1] = system: striatum of 3NP-intoxicated mice; assay: Histological analysis of striatum in 3NP model (Nissl staining, Iba-1 immunostaining); type: in vivo; details: oral and intraperitoneal
Source text: Loss of neurons in the striatum (Nissl staining) and Iba1 (microglia marker) were detected by immunostaining in the coronal sections of striatum of mice treated with vehicle, 3NP+ vehicle, 3NP+ compound I (oral and intraperitoneal). Quantification of Nissl staining (A) and Iba1 (B) positive cells in the mouse striatum. Total average number of neurons and microglia is shown.
Quantification of Nissl staining (A) and Iba1 (B) positive cells in the mouse striatum. Total average number of neurons and microglia is shown.
Brains from 3NP model were fixed in 4% paraformaldehyde and 5-μm-thick sections for Nissl staining and immunohistochemical analysis of Iba-1, a marker of microglial cells. For immunohistochemistry sections were incubated overnight at 4° C. with monoclonal anti-mouse Iba-1 antibody (Millipore, Mass., USA) used at 1/50 dilution. After incubation with the corresponding primary antibody, sections were washed in 0.1 M PBS and incubated O/N at 4° C. with goat anti-mouse (Millipore, Mass., USA) secondary antibody. […] Negative control sections were obtained using the same protocol with omission of the primary antibody. All sections for each immunohistochemical procedure were processed at the same time and under the same conditions. […]

6-OHDA challenged mice = assay: 6-OHDA murine model of Parkinson's disease (pole test, cylinder rearing test); type: in vivo; details: oral or intraperitoneal, 14 days
Protocol: C57BL/6 mice were unilaterally injected intracerebroventricullarly with 6-hydroxydopamine (6-OHDA) or saline (control mice) and subjected to chronic intraperitoneal treatment with cannabigerol quinone acid (1) (oral […] in sesame oil, and intraperitoneal 10 mg/Kg in Tween80/Saline ( 1/16)) or vehicle (14 days), starting 16 h after the 6-OHDA injection. SHAM group corresponds to mice subjected to the surgical manipulation without injection of 6-OHDA. Motor coordination was evaluated by rotarod performance and motor activity was evaluated using a computer-aided actimeter. A: pole test results after oral treatment, B: cylinder rearing test results after oral treatment, C: pole test results after intraperitoneal treatment, D: cylinder rearing test results after intraperitoneal treatment.
Motor coordination was evaluated by rotarod performance and motor activity was evaluated using a computer-aided actimeter. A: pole test results after oral treatment, B: cylinder rearing test results after oral treatment, C: pole test results after intraperitoneal treatment, D: cylinder rearing test results after intraperitoneal treatment.
C57BL/6 mice pretreated intracerebroventricularly were anesthetized with an intraperitoneal injection of 200 mg/Kg of 2,2,2-tribromoethanol (Sigma-Aldrich) and placed in a stereotaxic frame with a mouse adapter (David Kopf Instruments, Tujunga, Calif., USA). […]
The pole test was used to detect bradykinesia and motor and cylinder rearing test to evaluate sensory-motor deficits in PD mice. For Pole test mice were placed head-upward on the top of a vertical rough-surfaced pole (diameter 8 mm; height 55 cm) and the time until animals descended to the floor was recorded with a maximum duration of 90 s. […] For Cylinder Rearing Test (CRT) the initial forepaw (left, right, or both) preference after placing the mouse in a methacrylate transparent cylinder of 15.5 cm in diameter and 12.7 cm in height was measured. […]

TNFα = assay: Real-time quantitative PCR of striatum, 3NP model, TNFα; details: 3NP mice vs 3NP+Vehicle; I 10 mg/kg oral and i.p.; IIe 30 mg/kg oral, 10 mg/Kg i.p.
Protocol: (§1) Expression levels were calculated using the 2^−ΔΔCt method. Values are expressed as means±SEM for 3 animals per group.
(§2) Total RNA was isolated from striata (3NP model) using RNeasy Lipid Tissue Mini Kit (Qiagen, GmbH). The total amount of RNA extracted was quantitated by spectrometry at 260 nm and its purity from the ratio between the absorbance values at 260 and 280 nm. Genomic DNA was removed to eliminate DNA contamination. Single-stranded complementary DNA was synthesized from up to 1 μg of total RNA (pool from at least 3 animals per group) using iScript™ cDNA Synthesis Kit (Bio-Rad, Hercules, Calif., USA). The reaction mixture was kept frozen at −20° C. until enzymatic amplification. The iQ™ SYBR Green Supermix (Bio-Rad) was used to quantify mRNA levels for TNF-α and IL-6. Real-time PCR was performed using a CFX96 Real-Time PCR Detection System (Bio-Rad). The GAPDH housekeeping gene was used to standardize the mRNA expression levels in every sample. Expression levels were calculated using the 2^−ΔΔCt method.

IL-6 = assay: Real-time quantitative PCR of striatum, 3NP model, IL-6; details: 3NP mice vs 3NP+Vehicle; I 10 mg/kg oral and i.p.; IIe 30 mg/kg oral, 10 mg/Kg i.p.
Protocol: as §1, §2

Nrf2 = details: cited from earlier work

| SMILES | Remaining fluorescence polarization (%) (PPARγ; compound concentration 0.01 ∝M) | Remaining fluorescence polarization (%) (PPARγ; compound concentration 0.05 ∝M) | Remaining fluorescence polarization (%) (PPARγ; compound concentration 0.1 ∝M) | Remaining fluorescence polarization (%) (PPARγ; compound concentration 0.5 ∝M) | Remaining fluorescence polarization (%) (PPARγ; compound concentration 1 ∝M) | Remaining fluorescence polarization (%) (PPARγ; compound concentration 5 ∝M) | Remaining fluorescence polarization (%) (PPARγ; compound concentration 10 ∝M) | Remaining fluorescence polarization (%) (PPARγ; compound concentration 25 ∝M) | Remaining fluorescence polarization (%) (PPARγ; compound concentration 50 ∝M) | clinical symptoms induced by 3-NP intoxication (behavioral score: hind limb clasping, locomotor activity, kyphosis) (3NP-intoxicated mice) | reactive microgliosis (Iba-1+ cells) [1] | striatal neurons (Nissl staining) against 3NP toxicity [1] | bradykinesia (pole test) (6-OHDA challenged mice) | clinical symptoms in 6-OH-DA challenged mice (6-OHDA challenged mice) | motor deficit (cylinder rearing test) (6-OHDA challenged mice) | gene expression of TNFα in striatum (TNFα) | gene expression of IL-6 in striatum (IL-6) | Nrf2 activation (electrophilic activity) (Nrf2) | Nrf2 activation (electrophilic activity) (Nrf2; listed as CBG-Q) |
| --- | --- | --- | --- | --- | --- | --- | --- | --- | --- | --- | --- | --- | --- | --- | --- | --- | --- | --- | --- |
| CCCCCC1=C(C(=O)O)C(=O)C(C/C=C(\C)CCC=C(C)C)=C(O)C1=O [I, cannabigerol quinone acid] | 97.8 | 97.3 | 87.3 | 78.2 | 53.3 | 20.7 | 16.5 | 24.4 | 34.4 | clearly alleviates the clinical symptoms | prevented the induction of reactive microgliosis | preservation of striatal neurons | attenuated | alleviates clinical symptoms | attenuated | down regulated; also recorded: attenuated the up-regulation | down regulated; also recorded: attenuated the up-regulation | – | – |
| CCCCCC1=CC(=O)C(C/C=C(\C)CCC=C(C)C)=C(O)C1=O [VCE-003, cannabigerol hydroxy-quinone] | – | – | – | – | – | – | – | – | – | – | – | – | – | – | – | – | – | electrophilic (Nrf2 activation) | activates the transcription factor Nrf2 |
